Publication PMC8910004, “Hexokinase 2 Inhibition and Biological Effects of BNBZ and Its Derivatives: The Influence of the Number and Arrangement of Hydroxyl Groups” (International Journal of Molecular Sciences, 2022)

Key:
[1] = biological target: T1, Hexokinase 2 (H6-hHK2) (Homo sapiens, UniProt P52789); experiment: microscale thermophoresis (RED-Tris-NTA labelled His6-HK2); also inhibits isolated HK2 in kit assay; assay type: binding
T1 construct: gene HK2; N-terminal His6-tagged human HK2, aa 17-917
T1 sequence (P52789 17-917): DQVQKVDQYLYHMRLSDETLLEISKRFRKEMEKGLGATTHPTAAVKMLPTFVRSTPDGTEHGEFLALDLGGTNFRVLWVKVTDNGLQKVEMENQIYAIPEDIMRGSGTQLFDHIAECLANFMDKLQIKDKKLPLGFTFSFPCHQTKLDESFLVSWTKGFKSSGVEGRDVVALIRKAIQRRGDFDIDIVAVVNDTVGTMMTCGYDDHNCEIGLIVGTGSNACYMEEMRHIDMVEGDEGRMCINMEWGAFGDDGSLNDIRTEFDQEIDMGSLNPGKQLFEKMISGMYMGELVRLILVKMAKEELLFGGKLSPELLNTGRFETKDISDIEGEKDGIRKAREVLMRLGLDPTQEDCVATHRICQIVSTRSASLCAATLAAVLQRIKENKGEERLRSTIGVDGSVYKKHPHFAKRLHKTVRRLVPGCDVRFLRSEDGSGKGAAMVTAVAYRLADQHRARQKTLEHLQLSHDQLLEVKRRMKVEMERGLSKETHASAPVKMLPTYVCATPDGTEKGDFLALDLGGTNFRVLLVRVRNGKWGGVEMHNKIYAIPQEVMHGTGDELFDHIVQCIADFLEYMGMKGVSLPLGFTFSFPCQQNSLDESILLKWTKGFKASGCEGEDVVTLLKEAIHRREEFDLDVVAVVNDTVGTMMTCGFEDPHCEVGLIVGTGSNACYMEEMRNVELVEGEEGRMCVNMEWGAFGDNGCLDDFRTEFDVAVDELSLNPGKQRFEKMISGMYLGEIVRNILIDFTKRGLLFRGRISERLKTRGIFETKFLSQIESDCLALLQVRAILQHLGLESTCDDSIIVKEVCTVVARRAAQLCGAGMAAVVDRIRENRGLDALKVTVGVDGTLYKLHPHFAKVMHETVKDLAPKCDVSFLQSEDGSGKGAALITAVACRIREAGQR

[2] = biological target: T2, Hexokinase 2 (Homo sapiens, UniProt P52789); experiment: in vitro HK2 Inhibitor Screening Kit (G6PDH-coupled colorimetric), […], positive control; assay type: biochemical
T2 construct: gene HK2
T2 sequence (P52789 1-917): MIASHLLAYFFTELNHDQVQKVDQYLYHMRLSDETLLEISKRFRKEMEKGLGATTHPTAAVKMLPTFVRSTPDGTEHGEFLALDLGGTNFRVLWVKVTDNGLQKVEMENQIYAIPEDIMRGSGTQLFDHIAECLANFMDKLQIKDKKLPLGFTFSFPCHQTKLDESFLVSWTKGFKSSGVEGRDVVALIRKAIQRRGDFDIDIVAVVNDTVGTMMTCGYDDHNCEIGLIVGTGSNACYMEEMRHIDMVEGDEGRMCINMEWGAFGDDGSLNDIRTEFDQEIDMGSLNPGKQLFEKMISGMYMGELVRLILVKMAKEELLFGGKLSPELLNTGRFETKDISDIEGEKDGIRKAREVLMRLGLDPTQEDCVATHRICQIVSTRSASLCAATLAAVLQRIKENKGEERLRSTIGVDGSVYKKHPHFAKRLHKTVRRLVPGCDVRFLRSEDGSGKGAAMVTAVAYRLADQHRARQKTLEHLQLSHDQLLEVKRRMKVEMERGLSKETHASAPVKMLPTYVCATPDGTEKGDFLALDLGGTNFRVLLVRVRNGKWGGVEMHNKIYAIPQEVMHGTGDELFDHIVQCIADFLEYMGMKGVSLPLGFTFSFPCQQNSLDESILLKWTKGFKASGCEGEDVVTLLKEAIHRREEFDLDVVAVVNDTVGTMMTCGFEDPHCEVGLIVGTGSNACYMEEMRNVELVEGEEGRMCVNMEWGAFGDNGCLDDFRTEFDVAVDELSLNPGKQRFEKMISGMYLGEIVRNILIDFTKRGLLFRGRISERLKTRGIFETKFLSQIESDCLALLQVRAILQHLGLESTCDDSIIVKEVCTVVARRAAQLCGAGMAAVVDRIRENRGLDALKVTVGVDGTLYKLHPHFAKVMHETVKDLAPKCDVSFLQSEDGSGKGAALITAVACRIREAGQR

[3] = biological target: T1, Hexokinase 2 (H6-hHK2); experiment: microscale thermophoresis (RED-Tris-NTA labelled His6-HK2); assay type: binding

Row | Structure (SMILES) | activity at 5 µM [2] | other results
1 | O=C(N/N=C/c1ccc(O)c(O)c1O)c1ccc([N+](=O)[O-])cc1 [2a, (E)-N′-(2,3,4-trihydroxybenzylidene)-4-nitrobenzohydrazide] | – | Kd [1]: 8.83 to 11 µM
2 | O=C(O)C(=O)CBr [3BP, 3-bromopyruvate] | 2.5 ± 0.4% | –
3 | O=C(N/N=C/c1ccc(O)cc1O)c1ccc([N+](=O)[O-])cc1 [2b, (E)-N′-(2,4-dihydroxybenzylidene)-4-nitrobenzohydrazide] | – | Kd [3]: 58.9 µM
4 | OC[C@H]1OC(O)C[C@@H](O)[C@@H]1O (stereo partly shown) [2DG, 2-deoxyglucose] | 9.9 ± 0.5% | –
